# Measured values published in paper doi:10.1101/2024.01.18.576231v1 (biorxiv, 2024).
# What was measured:
# Assay type in all cases: binding
# CRBN_ΔHBD [1] = biological target: T1, CRBN_ΔHBD (Homo sapiens, UniProt Q96SW2, INS193GNGNSG/DEL194-248); experiment: fluorescence polarization, displacement of Cy5-thalidomide; conditions: […] Cy5-thalidomide tracer, pH […]
# CRBN_ΔHBD [2] = biological target: T1, CRBN_ΔHBD; experiment: fluorescence polarization, direct titration; conditions: labelled compound; […] tracer, pH […], RT
# CRBN:DDB1 complex = CRBN:DDB1 complex (Homo sapiens, UniProt Q96SW2); experiment: fluorescence polarization, direct titration; conditions: labelled compound; […] tracer, pH […], RT
# CRBN_TBD = CRBN_TBD (Homo sapiens, UniProt Q96SW2); experiment: fluorescence polarization, direct titration; conditions: labelled compound; […] tracer, pH […], RT
EC50 (CRBN_ΔHBD [1]) [nM],Molecule,further results
151,COc1cc(N)cnc1-c1ccc2c(c1)CN(C1CCC(=O)NC1=O)C2=O (stereo not shown) [Z5000467358],–
218,NC(=O)N1CCC(C#Cc2cccc3c2CN(C2CCC(=O)NC2=O)C3=O)CC1 (stereo not shown) [Z4999915373],–
197,COc1nccnc1CNc1ccc2c(c1)CN(C1CCC(=O)NC1=O)C2=O (stereo not shown) [Z5000208878],–
193,O=C1CCC(N2Cc3c(C=C4CCOC4)cccc3C2=O)C(=O)N1 (stereo not shown) [Z4223332422],–
257,Cc1nn(CCO)cc1CNc1ccc2c(c1)CN(C1CCC(=O)NC1=O)C2=O (stereo not shown) [Z5000207375],–
187,Nc1c(O)ccc2c1C(=O)N(C1CCC(=O)NC1=O)C2=O (stereo not shown) [Z3269026162],–
223,COc1cccc2c1CN(C1CCC(=O)NC1=O)C2=O (stereo not shown) [Z2508929002],–
–,Cy5-conjugated thalidomide,Kd (CRBN_ΔHBD [2]): 13 nM; Kd (CRBN:DDB1 complex): 4.1 nM; Kd (CRBN_TBD): 5 µM
